PubChem BioAssay (NCI)
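Tested at 5 concentrations; 48 h exposure; 96-well plates; endpoints linearly interpolated, else capped at highest concentration. At the TGI there is no net growth.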

Columns and labels:
Assay in all cases: NCI-60 cell line screen, 48 h
[1] = system: SK-MEL-2 melanoma
[2] = system: NCI-H226 lung
[3] = system: IGROV1 ovarian
[4] = system: MALME-3M melanoma
[5] = system: A549 NSCLC
[6] = system: HCT-116 colon
[7] = system: OVCAR-5 ovarian
[8] = system: HCC-2998 colon
[9] = system: COLO 205 colon
[10] = system: SK-OV-3 ovarian
[11] = system: ACHN renal
[12] = system: LXFL 529 NSCLC
[13] = system: HOP-92 NSCLC
[14] = system: SK-MEL-5 melanoma
[15] = system: 786-0 renal
[16] = system: NCI-H460 lung
[17] = system: KM20L2 colon
[18] = system: SK-MEL-28 melanoma
[19] = system: DLD-1 colon
[20] = system: M19-MEL melanoma
[21] = system: OVCAR-4 ovarian
[22] = system: SW-620 colon
[23] = system: SNB-78 CNS
[24] = system: MOLT-4 leukemia
[25] = system: HOP-18 NSCLC
[26] = system: CAKI-1 renal
[27] = system: U251 CNS
[28] = system: SNB-75 CNS
[29] = system: HOP-62 NSCLC
[30] = system: M14 melanoma
[31] = system: UO-31 renal
[32] = system: RPMI-8226 leukemia
[33] = system: HT29 colon
[34] = system: UACC-257 melanoma
[35] = system: SNB-19 CNS
[36] = system: UACC-62 melanoma
[37] = system: XF 498 CNS
[38] = system: LOX IMVI melanoma
[39] = system: K-562 leukemia
[40] = system: HCT-15 colon
[41] = system: RXF 393 renal
[42] = system: OVCAR-8 ovarian
[43] = system: SF-268 CNS
[44] = system: A498 renal
[45] = system: NCI-H522 lung
[46] = system: CCRF-CEM leukemia
[47] = system: SF-295 CNS
[48] = system: KM12 colon
[49] = system: NCI-H23 lung
[50] = system: SF-539 CNS
[51] = system: EKVX NSCLC
[52] = system: SR leukemia
[53] = system: OVCAR-3 ovarian
[54] = system: TK-10 renal
[55] = system: HL-60(TB) leukemia

Q: What does the source list for `CC(NC1CCCC[C@H]1O)c1ccccc1` (some centres undefined)?
A: TGI [1]: > 100 µM; TGI [2]: > 100 µM; TGI [3]: > 100 µM; TGI [4]: > 100 µM; TGI [5]: > 100 µM; TGI [6]: > 100 µM; TGI [7]: > 100 µM; TGI [8]: > 100 µM; TGI [9]: > 100 µM; TGI [10]: > 100 µM; TGI [11]: > 100 µM; TGI [12]: > 100 µM; TGI [13]: > 100 µM; TGI [14]: > 100 µM; TGI [15]: > 100 µM; TGI [16]: > 100 µM; TGI [17]: > 100 µM; TGI [18]: > 100 µM; TGI [19]: > 100 µM; TGI [20]: > 100 µM; TGI [21]: > 100 µM; TGI [22]: > 100 µM; TGI [23]: > 100 µM; TGI [24]: > 100 µM; TGI [25]: > 100 µM; TGI [26]: > 100 µM; TGI [27]: > 100 µM; TGI [28]: > 100 µM; TGI [29]: > 100 µM; TGI [30]: > 100 µM; TGI [31]: > 100 µM; TGI [32]: > 100 µM; TGI [33]: > 100 µM; TGI [34]: > 100 µM; TGI [35]: > 100 µM; TGI [36]: > 100 µM

Q: Which TGI [1] does the source give for `Oc1cc(CN2CCOCCOCCOCCOCC2)c(O)cc1CN1CCOCCOCCOCCOCC1` here?
A: Its TGI is over 93.4 µM.

Q: And the TGI [2]?
A: The TGI was over 85 µM.

Q: And the TGI [3]?
A: The TGI was over 100 µM.

Q: What about the TGI [37] of the same molecule?
A: The TGI was 42.5 µM.

Q: What about the TGI [5] of the same molecule?
A: The TGI was over 100 µM.

Q: And the TGI [6]?
A: Its TGI is 43.4 µM.

Q: What about the TGI [7] of the same molecule?
A: Its TGI is 61.6 µM.

Q: What about the TGI [38] of the same molecule?
A: The TGI was 66.4 µM.

Q: And the TGI [39]?
A: Its TGI is over 75.2 µM.

Q: And the TGI [8]?
A: The TGI was over 100 µM.

Q: And the TGI [40]?
A: Its TGI is over 67.4 µM.

Q: What about the TGI [41] of the same molecule?
A: The TGI was 60.5 µM.

Q: And the TGI [42]?
A: The TGI was over 100 µM.

Q: What about the TGI [9] of the same molecule?
A: Its TGI is 39.6 µM.

Q: What about the TGI [10] of the same molecule?
A: The TGI was over 100 µM.

Q: What about the TGI [43] of the same molecule?
A: The TGI was 96.8 µM.

Q: What about the TGI [11] of the same molecule?
A: Its TGI is over 59.2 µM.

Q: And the TGI [12]?
A: Its TGI is 44.2 µM.

Q: What about the TGI [44] of the same molecule?
A: Its TGI is over 100 µM.

Q: What about the TGI [13] of the same molecule?
A: The TGI was 49.7 µM.

Q: And the TGI [14]?
A: The TGI was over 100 µM.

Q: What about the TGI [15] of the same molecule?
A: The TGI was 58.5 µM.

Q: And the TGI [45]?
A: The TGI was 31.6 µM.

Q: And the TGI [16]?
A: The TGI was over 100 µM.

Q: What about the TGI [46] of the same molecule?
A: Its TGI is 44 µM.

Q: What about the TGI [17] of the same molecule?
A: Its TGI is over 100 µM.

Q: And the TGI [18]?
A: Its TGI is 54.7 µM.

Q: What about the TGI [19] of the same molecule?
A: Its TGI is 48.2 µM.

Q: What about the TGI [20] of the same molecule?
A: Its TGI is 19.3 µM.

Q: What about the TGI [21] of the same molecule?
A: The TGI was 34 µM.

Q: And the TGI [47]?
A: The TGI was over 100 µM.

Q: What about the TGI [22] of the same molecule?
A: Its TGI is 53.1 µM.

Q: And the TGI [23]?
A: The TGI was over 100 µM.

Q: What about the TGI [24] of the same molecule?
A: Its TGI is 52.6 µM.

Q: And the TGI [48]?
A: Its TGI is over 100 µM.

Q: And the TGI [49]?
A: The TGI was over 100 µM.

Q: And the TGI [26]?
A: The TGI was 38.9 µM.

Q: What about the TGI [27] of the same molecule?
A: Its TGI is over 56.8 µM.

Q: And the TGI [28]?
A: Its TGI is over 100 µM.

Q: What about the TGI [50] of the same molecule?
A: The TGI was over 100 µM.

Q: What about the TGI [29] of the same molecule?
A: The TGI was over 100 µM.

Q: What about the TGI [30] of the same molecule?
A: The TGI was 38.9 µM.

Q: What about the TGI [51] of the same molecule?
A: The TGI was over 100 µM.

Q: What about the TGI [31] of the same molecule?
A: The TGI was over 100 µM.

Q: What about the TGI [52] of the same molecule?
A: The TGI was 43.8 µM.

Q: What about the TGI [32] of the same molecule?
A: The TGI was 63.8 µM.

Q: And the TGI [33]?
A: The TGI was over 73.3 µM.

Q: And the TGI [34]?
A: The TGI was over 100 µM.

Q: And the TGI [53]?
A: The TGI was over 100 µM.

Q: And the TGI [54]?
A: Its TGI is over 96.2 µM.

Q: And the TGI [55]?
A: The TGI was 52.4 µM.

Q: And the TGI [35]?
A: Its TGI is over 100 µM.

Q: And the TGI [36]?
A: The TGI was over 72.2 µM.
